Assay results: US8835462B2, “Macrocyclic picolinamides as fungicides” (Dow AgroSciences LLC, priority 2012, dated 2014)

How the values were obtained:
Assay type in all cases: in vivo
[1] = system: Magnaporthe grisea; Anamorph: Pyricularia oryzae; assay: whole plant or invertebrate; settings: 24 h, read-out: Disease Control PYRIOR 1DP
[2] = system: Venturia inaequalis; assay: Apple scab (VENTIN) fungicidal activity; settings: 24 h, 1 Day Protectant, read-out: Disease Control VENTIN 1DP
Method: Technical grades of materials were dissolved in acetone, which were then mixed with nine volumes of water containing 110 ppm Triton X-100. The fungicide solutions were applied onto wheat seedlings using an automated booth sprayer to run-off. All sprayed plants were allowed to air dry prior to further handling. Wheat plants (variety Yuma) were grown from seed in a greenhouse in 50% mineral soil/50% soil-less Metro mix until the first leaf was fully emerged, with 7-10 seedlings per pot. These plants were inoculated with an aqueous spore suspension of Septoria tritici either prior to or after fungicide treatments. After inoculation the plants were kept in 100% relative humidity (one day in a dark dew chamber followed by two to three days in a lighted dew chamber at 20° C.) to permit spores to germinate and infect the leaf. The plants were then transferred to a greenhouse set at 20° C. for disease to develop. When disease symptoms were fully expressed on the 1st leaves of untreated plants, infection levels were assessed on a scale of 0 to 100 percent disease severity. Percent disease control was calculated using the ratio of disease severity on treated plants relative to untreated plants. Evaluation of Fungicidal Activity: Apple Scab (Venturia Inaequalis; Bayer Code […]) Apple seedlings (variety McIntosh) were grown in soil-less Metro mix, with one plant per pot. Seedlings with two expanding young leaves at the top (older leaves at bottom of the plants were trimmed) were used in the test. Plants were inoculated with a spore suspension of Venturia inaequalis 24 hr after fungicide treatment and kept in a 22° C. dew chamber with 100% RH for 48 hr, and then moved to a greenhouse set at 20° C. for disease to develop. Fungicide formulation, application and disease assessment on the sprayed leaves followed the procedures as described in the Example A.

[3] = system: Erysiphe cichoracearum; assay: Powdery mildew of cucumber (ERYSCI) fungicidal activity; settings: Golovinomyces cichoracearum, 24 h, 1 Day Protectant, read-out: Disease Control ERYSCI 1DP
Method: Technical grades of materials were dissolved in acetone, which were then mixed with nine volumes of water containing 110 ppm Triton X-100. The fungicide solutions were applied onto wheat seedlings using an automated booth sprayer to run-off. All sprayed plants were allowed to air dry prior to further handling. Wheat plants (variety Yuma) were grown from seed in a greenhouse in 50% mineral soil/50% soil-less Metro mix until the first leaf was fully emerged, with 7-10 seedlings per pot. These plants were inoculated with an aqueous spore suspension of Septoria tritici either prior to or after fungicide treatments. After inoculation the plants were kept in 100% relative humidity (one day in a dark dew chamber followed by two to three days in a lighted dew chamber at 20° C.) to permit spores to germinate and infect the leaf. The plants were then transferred to a greenhouse set at 20° C. for disease to develop. When disease symptoms were fully expressed on the 1st leaves of untreated plants, infection levels were assessed on a scale of 0 to 100 percent disease severity. Percent disease control was calculated using the ratio of disease severity on treated plants relative to untreated plants. Evaluation of Fungicidal Activity: Powdery Mildew of Cucumber (Erysiphe cichoracearum; Bayer Code […]) Cucumber seedlings (variety Bush Pickle) were grown in soil-less Metro mix, with one plant per pot, and used in the test when 12 to 14 days old. Plants were inoculated with a spore suspension 24 hr following fungicide treatments. After inoculation the plants remained in the greenhouse set at 20° C. until disease was fully expressed. Fungicide formulation, application and disease assessment on the sprayed leaves followed the procedures as described in the Example A.

[4] = system: Leptosphaeria nodorum; assay: Wheat glume blotch (LEPTNO) fungicidal activity; settings: Parastagonospora nodorum, 24 h, 1 Day Protectant, read-out: Disease Control LEPTNO 1DP
Method: Technical grades of materials were dissolved in acetone, which were then mixed with nine volumes of water containing 110 ppm Triton X-100. The fungicide solutions were applied onto wheat seedlings using an automated booth sprayer to run-off. All sprayed plants were allowed to air dry prior to further handling. Wheat plants (variety Yuma) were grown from seed in a greenhouse in 50% mineral soil/50% soil-less Metro mix until the first leaf was fully emerged, with 7-10 seedlings per pot. These plants were inoculated with an aqueous spore suspension of Septoria tritici either prior to or after fungicide treatments. After inoculation the plants were kept in 100% relative humidity (one day in a dark dew chamber followed by two to three days in a lighted dew chamber at 20° C.) to permit spores to germinate and infect the leaf. The plants were then transferred to a greenhouse set at 20° C. for disease to develop. When disease symptoms were fully expressed on the 1st leaves of untreated plants, infection levels were assessed on a scale of 0 to 100 percent disease severity. Percent disease control was calculated using the ratio of disease severity on treated plants relative to untreated plants. Evaluation of Fungicidal Activity: Wheat Glume Blotch (Leptosphaeria Nodorum; Bayer Code […]) Wheat plants (variety Yuma) were grown from seed in a greenhouse in 50% mineral soil/50% soil-less Metro mix until the first leaf was fully emerged, with 7-10 seedlings per pot. These plants were inoculated with an aqueous spore suspension of Leptosphaeria nodorum 24 hr after fungicide treatments. After inoculation the plants were kept in 100% relative humidity (one day in a dark dew chamber followed by two days in a lighted dew chamber at 20° C.) to permit spores to germinate and infect the leaf. The plants were then transferred to a greenhouse set at 20° C. for disease to develop. Fungicide formulation, application and disease assessment followed the procedures as described in the Example A.

[5] = system: Blumeria graminis f. sp. hordei; assay: Barley powdery mildew (ERYSGH) fungicidal activity; settings: 24 h, 1 Day Protectant, read-out: Disease Control ERYSGH 1DP
Method: Technical grades of materials were dissolved in acetone, which were then mixed with nine volumes of water containing 110 ppm Triton X-100. The fungicide solutions were applied onto wheat seedlings using an automated booth sprayer to run-off. All sprayed plants were allowed to air dry prior to further handling. Wheat plants (variety Yuma) were grown from seed in a greenhouse in 50% mineral soil/50% soil-less Metro mix until the first leaf was fully emerged, with 7-10 seedlings per pot. These plants were inoculated with an aqueous spore suspension of Septoria tritici either prior to or after fungicide treatments. After inoculation the plants were kept in 100% relative humidity (one day in a dark dew chamber followed by two to three days in a lighted dew chamber at 20° C.) to permit spores to germinate and infect the leaf. The plants were then transferred to a greenhouse set at 20° C. for disease to develop. When disease symptoms were fully expressed on the 1st leaves of untreated plants, infection levels were assessed on a scale of 0 to 100 percent disease severity. Percent disease control was calculated using the ratio of disease severity on treated plants relative to untreated plants. Evaluation of Fungicidal Activity: Barley Powdery Mildew (Blumeria Graminis f. sp. Hordei; Synonym: Erysiphe Graminis f. sp. Hordei; Bayer Code […]) Barley seedlings (variety Harrington) were propagated in soil-less Metro mix, with each pot having 8 to 12 plants, and used in the test when first leaf was fully emerged. Test plants were inoculated by dusting with infected stock plants 24 hr after fungicide treatments. After inoculation the plants were kept in a greenhouse set at 20° C. for disease to develop. Fungicide formulation, application and disease assessment on the sprayed leaves followed the procedures as described in the Example A.

Compound	pest or weed control at 100 ppm [1] [%]	pest or weed control at 100 ppm [2] [%]	pest or weed control at 100 ppm [3] [%]	pest or weed control at 100 ppm [4] [%]	pest or weed control at 100 ppm [5] [%]
COc1ccnc(C(=O)N[C@H]2COC[C@H](Cc3ccccc3)[C@@H](OCC(C)C)[C@H](C)OC2=O)c1O [Compound 2, N-((3S,7S,8R,9S)-7-benzyl-8-isobutoxy-9-methyl-2-oxo-1,5-dioxonan-3-yl)-3-hydroxy-4-methoxypicolinamide]	80 to 100	80 to 100	–	–	–
COc1ccnc(C(=O)N[C@H]2COC[C@H](Cc3ccccc3)[C@@H](OCC(C)C)[C@H](C)OC2=O)c1OCOC(=O)C(C)C [Compound 3]	–	0 to 80	80 to 100	80 to 100	80 to 100
COc1ccnc(C(=O)N[C@H]2COC[C@H](Cc3ccccc3)[C@@H](OCC(C)C)[C@H](C)OC2=O)c1OCOC(=O)C(C)(C)C [Compound 7]	–	0 to 80	80 to 100	80 to 100	80 to 100
COc1ccnc(C(=O)N[C@H]2COC[C@H](Cc3ccccc3)[C@@H](OCC(C)C)[C@H](C)OC2=O)c1OCOC(C)=O [Compound 8, (2-((3S,7S,8R,9S)-7-benzyl-8-isobutoxy-9-methyl-2-oxo-1,5-dioxonan-3-ylcarbamoyl)-4-methoxypyridin-3-yloxy)methyl acetate]	80 to 100	80 to 100	80 to 100	80 to 100	80 to 100
COc1ccnc(C(=O)N[C@H]2COC[C@H](Cc3ccccc3)[C@@H](OCC(C)C)[C@H](C)OC2=O)c1OC(C)=O [Compound 9, 2-(((3S,7S,8R,9S)-7-benzyl-8-isobutoxy-9-methyl-2-oxo-1,5-dioxonan-3-yl)carbamoyl)-4-methoxypyridin-3-yl acetate]	–	80 to 100	80 to 100	80 to 100	80 to 100
COc1ccnc(C(=O)N[C@H]2COC[C@H](Cc3ccccc3)[C@@H](OCC(C)C)[C@H](C)OC2=O)c1OC(=O)OC(C)C [Compound 10, 2-(((3S,7S,8R,9S)-7-benzyl-8-isobutoxy-9-methyl-2-oxo-1,5-dioxonan-3-yl)carbamoyl)-4-methoxypyridin-3-yl isopropyl carbonate]	–	80 to 100	80 to 100	80 to 100	80 to 100
COc1ccnc(C(=O)N[C@H]2COC[C@H](Cc3ccccc3)[C@@H](OCCC(=O)N(C)C)[C@H](C)OC2=O)c1OCOC(C)=O [Compound 15]	0 to 80	0 to 80	–	0 to 80	–
COCCCO[C@@H]1[C@@H](Cc2ccccc2)COC[C@H](NC(=O)c2nccc(OC)c2OCOC(C)=O)C(=O)O[C@H]1C [Compound 16]	80 to 100	0 to 80	80 to 100	80 to 100	80 to 100
CCCO[C@@H]1[C@@H](Cc2ccccc2)COC[C@H](NC(=O)c2nccc(OC)c2OCOC(C)=O)C(=O)O[C@H]1C [Compound 22]	80 to 100	80 to 100	80 to 100	80 to 100	80 to 100
COc1ccnc(C(=O)N[C@H]2COC[C@H](Cc3ccccc3)[C@@H](OCCCC(F)(F)F)[C@H](C)OC2=O)c1OCOC(C)=O [Compound 23]	80 to 100	0 to 80	80 to 100	80 to 100	80 to 100
CCCCCO[C@@H]1[C@@H](Cc2ccccc2)COC[C@H](NC(=O)c2nccc(OC)c2OCOC(C)=O)C(=O)O[C@H]1C [Compound 26]	80 to 100	80 to 100	80 to 100	80 to 100	80 to 100
COc1ccnc(C(=O)N[C@H]2COC[C@H](Cc3ccccc3)[C@@H](OC(=O)c3ccccc3)[C@H](C)OC2=O)c1OCOC(C)=O [Compound 37]	80 to 100	0 to 80	–	80 to 100	0 to 80
COc1ccnc(C(=O)N[C@H]2COC[C@H](Cc3ccccc3)[C@@H](Oc3ccccc3)[C@H](C)OC2=O)c1OCOC(C)=O [Compound 40]	80 to 100	80 to 100	–	80 to 100	–
COc1ccnc(C(=O)N[C@H]2COC[C@H](Cc3ccccc3)[C@@H](OCC(F)F)[C@H](C)OC2=O)c1OCOC(C)=O [Compound 44]	80 to 100	0 to 80	0 to 80	80 to 100	–
COc1ccnc(C(=O)N[C@H]2COC[C@H](Cc3ccccc3)[C@@H](OCCC(C)OC)[C@H](C)OC2=O)c1OCOC(C)=O (stereo partly shown) [Compound 46]	80 to 100	80 to 100	80 to 100	80 to 100	–
COc1ccnc(C(=O)N[C@H]2COC[C@H](Cc3ccccc3)[C@@H](OC3CCCC3)[C@H](C)OC2=O)c1OCOC(C)=O [Compound 106]	–	–	80 to 100	80 to 100	80 to 100
